According to ChEMBL document CHEMBL3132769, “Fragment growing to retain or alter the selectivity of anchored kinase hinge-binding fragments” (Medchemcomm, 2014):

How the values were obtained:
[1] = molecular target: Mitogen-activated protein kinase 14 (Homo sapiens) (UniProt Q16539); experiment: Inhibition of human truncated p38 alpha expressed in Escherichia coli cell assessed as substrate phosphorylation using fluorescence-labelled peptides as substrate at 0.2 uM after 90 mins by microfluidic peptide phosphorylation assay
[2] = molecular target: T1, Serine/threonine-protein kinase BRSK1 (Homo sapiens) (UniProt Q8TDC3); experiment: Inhibition of human full length BRSK1 expressed in baculovirus assessed as substrate phosphorylation using fluorescence-labelled peptides as substrate at 9 uM after 90 mins by microfluidic peptide phosphorylation assay
T1 sequence (whole entry): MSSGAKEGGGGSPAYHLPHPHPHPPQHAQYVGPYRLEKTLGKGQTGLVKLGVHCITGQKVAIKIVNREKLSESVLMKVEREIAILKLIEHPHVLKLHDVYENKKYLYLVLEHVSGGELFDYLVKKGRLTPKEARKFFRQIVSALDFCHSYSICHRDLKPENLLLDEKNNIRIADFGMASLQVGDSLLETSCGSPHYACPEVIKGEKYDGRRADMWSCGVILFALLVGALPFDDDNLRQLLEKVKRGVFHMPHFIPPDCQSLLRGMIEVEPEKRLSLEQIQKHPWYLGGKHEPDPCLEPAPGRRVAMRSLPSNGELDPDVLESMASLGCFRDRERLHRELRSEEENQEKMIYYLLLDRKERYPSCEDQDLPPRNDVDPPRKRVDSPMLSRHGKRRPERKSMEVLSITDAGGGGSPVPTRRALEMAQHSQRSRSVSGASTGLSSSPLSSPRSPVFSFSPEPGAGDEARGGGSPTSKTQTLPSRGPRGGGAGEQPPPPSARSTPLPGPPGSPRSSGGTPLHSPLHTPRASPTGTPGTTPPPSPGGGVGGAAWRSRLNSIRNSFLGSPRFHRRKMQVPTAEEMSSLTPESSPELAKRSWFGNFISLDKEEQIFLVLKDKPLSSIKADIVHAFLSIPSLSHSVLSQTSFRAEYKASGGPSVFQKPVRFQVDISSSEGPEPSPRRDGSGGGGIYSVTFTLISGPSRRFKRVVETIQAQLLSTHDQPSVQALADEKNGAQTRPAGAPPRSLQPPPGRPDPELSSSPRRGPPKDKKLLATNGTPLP

[3] = molecular target: Tyrosine-protein kinase ABL1 (Homo sapiens) (UniProt P00519); experiment: Inhibition of human full-length ABL expressed in baculovirus assessed as substrate phosphorylation using fluorescence-labelled peptides as substrate at 9 uM after 90 mins by microfluidic peptide phosphorylation assay
[4] = molecular target: Dual specificity tyrosine-phosphorylation-regulated kinase 1A (Rattus norvegicus) (UniProt Q63470); experiment: Inhibition of rat full length DYRK1a expressed in Escherichia coli cell assessed as substrate phosphorylation using fluorescence-labelled peptides as substrate at 2 uM after 90 mins by microfluidic peptide phosphorylation assay
[5] = molecular target: Calcium/calmodulin-dependent protein kinase type II subunit gamma (Homo sapiens) (UniProt Q13555); experiment: Inhibition of human CAMK2 gamma catalytic domain expressed in baculovirus assessed as substrate phosphorylation using fluorescence-labelled peptides as substrate at 2 uM after 90 mins by microfluidic peptide phosphorylation assay
[6] = molecular target: T2, Calcium/calmodulin-dependent protein kinase type IV (Homo sapiens) (UniProt Q16566); experiment: Inhibition of human full length CAMK4 expressed in baculovirus assessed as substrate phosphorylation using fluorescence-labelled peptides as substrate at 2 uM after 90 mins by microfluidic peptide phosphorylation assay
T2 sequence (whole entry): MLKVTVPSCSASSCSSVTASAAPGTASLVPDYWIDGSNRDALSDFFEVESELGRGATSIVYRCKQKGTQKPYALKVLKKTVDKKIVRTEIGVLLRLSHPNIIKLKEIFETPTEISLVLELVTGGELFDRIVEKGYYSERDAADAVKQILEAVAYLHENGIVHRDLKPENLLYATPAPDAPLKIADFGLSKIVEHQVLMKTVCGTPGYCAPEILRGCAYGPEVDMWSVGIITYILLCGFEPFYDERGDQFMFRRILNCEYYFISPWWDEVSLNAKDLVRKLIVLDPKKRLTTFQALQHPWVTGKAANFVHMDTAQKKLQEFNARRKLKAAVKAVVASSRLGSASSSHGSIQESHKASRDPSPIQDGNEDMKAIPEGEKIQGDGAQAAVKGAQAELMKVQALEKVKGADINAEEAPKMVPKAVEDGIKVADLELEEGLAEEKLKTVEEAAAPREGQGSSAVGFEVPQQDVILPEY

[7] = molecular target: T3, Mitogen-activated protein kinase 13 (Homo sapiens) (UniProt O15264); experiment: Inhibition of human full length p38 delta expressed in Escherichia coli cell assessed as substrate phosphorylation using fluorescence-labelled peptides as substrate at 8 uM after 90 mins by microfluidic peptide phosphorylation assay
T3 sequence (whole entry): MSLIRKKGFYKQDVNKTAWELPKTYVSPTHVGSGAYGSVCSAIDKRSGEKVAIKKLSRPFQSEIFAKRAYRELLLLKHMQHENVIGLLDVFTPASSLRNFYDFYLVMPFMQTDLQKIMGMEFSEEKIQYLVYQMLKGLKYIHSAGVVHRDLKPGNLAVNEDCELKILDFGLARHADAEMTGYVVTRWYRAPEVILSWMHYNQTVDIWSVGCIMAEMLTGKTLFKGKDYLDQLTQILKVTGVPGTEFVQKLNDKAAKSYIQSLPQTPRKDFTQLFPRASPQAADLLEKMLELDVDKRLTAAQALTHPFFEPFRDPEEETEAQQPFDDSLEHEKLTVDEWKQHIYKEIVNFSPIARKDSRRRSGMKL

[8] = molecular target: Protein kinase C delta type (Homo sapiens) (UniProt Q05655); experiment: Inhibition of human truncated PKC delta expressed in baculovirus assessed as substrate phosphorylation using fluorescence-labelled peptides as substrate at 70 uM after 90 mins by microfluidic peptide phosphorylation assay
[9] = molecular target: T4, Mitogen-activated protein kinase 12 (Homo sapiens) (UniProt P53778); experiment: Inhibition of human full length p38 gamma expressed in Escherichia coli cell assessed as substrate phosphorylation using fluorescence-labelled peptides as substrate at 70 uM after 90 mins by microfluidic peptide phosphorylation assay
T4 sequence (whole entry): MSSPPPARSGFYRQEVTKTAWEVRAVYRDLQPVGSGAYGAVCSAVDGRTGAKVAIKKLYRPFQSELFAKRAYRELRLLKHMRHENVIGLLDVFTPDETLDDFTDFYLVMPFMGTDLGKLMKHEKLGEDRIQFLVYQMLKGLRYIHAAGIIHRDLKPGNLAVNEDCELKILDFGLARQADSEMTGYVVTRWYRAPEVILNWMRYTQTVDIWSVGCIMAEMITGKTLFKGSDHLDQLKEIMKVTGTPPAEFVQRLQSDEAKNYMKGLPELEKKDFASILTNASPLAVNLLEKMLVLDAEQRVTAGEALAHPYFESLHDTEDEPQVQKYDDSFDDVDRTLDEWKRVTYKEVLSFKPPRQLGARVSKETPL

Sequence of Mitogen-activated protein kinase 14 (Homo sapiens) (Q16539 whole entry, the tested form may be a part): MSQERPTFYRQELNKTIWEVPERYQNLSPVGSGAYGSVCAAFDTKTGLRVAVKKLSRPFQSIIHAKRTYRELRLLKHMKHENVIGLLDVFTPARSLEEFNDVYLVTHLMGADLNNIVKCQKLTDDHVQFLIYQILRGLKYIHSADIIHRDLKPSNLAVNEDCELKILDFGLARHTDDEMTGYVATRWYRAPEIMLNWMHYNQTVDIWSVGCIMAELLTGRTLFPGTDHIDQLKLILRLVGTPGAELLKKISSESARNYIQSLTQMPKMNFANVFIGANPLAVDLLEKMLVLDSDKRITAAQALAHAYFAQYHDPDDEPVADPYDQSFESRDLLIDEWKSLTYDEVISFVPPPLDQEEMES
Sequence of Tyrosine-protein kinase ABL1 (Homo sapiens) (P00519 whole entry): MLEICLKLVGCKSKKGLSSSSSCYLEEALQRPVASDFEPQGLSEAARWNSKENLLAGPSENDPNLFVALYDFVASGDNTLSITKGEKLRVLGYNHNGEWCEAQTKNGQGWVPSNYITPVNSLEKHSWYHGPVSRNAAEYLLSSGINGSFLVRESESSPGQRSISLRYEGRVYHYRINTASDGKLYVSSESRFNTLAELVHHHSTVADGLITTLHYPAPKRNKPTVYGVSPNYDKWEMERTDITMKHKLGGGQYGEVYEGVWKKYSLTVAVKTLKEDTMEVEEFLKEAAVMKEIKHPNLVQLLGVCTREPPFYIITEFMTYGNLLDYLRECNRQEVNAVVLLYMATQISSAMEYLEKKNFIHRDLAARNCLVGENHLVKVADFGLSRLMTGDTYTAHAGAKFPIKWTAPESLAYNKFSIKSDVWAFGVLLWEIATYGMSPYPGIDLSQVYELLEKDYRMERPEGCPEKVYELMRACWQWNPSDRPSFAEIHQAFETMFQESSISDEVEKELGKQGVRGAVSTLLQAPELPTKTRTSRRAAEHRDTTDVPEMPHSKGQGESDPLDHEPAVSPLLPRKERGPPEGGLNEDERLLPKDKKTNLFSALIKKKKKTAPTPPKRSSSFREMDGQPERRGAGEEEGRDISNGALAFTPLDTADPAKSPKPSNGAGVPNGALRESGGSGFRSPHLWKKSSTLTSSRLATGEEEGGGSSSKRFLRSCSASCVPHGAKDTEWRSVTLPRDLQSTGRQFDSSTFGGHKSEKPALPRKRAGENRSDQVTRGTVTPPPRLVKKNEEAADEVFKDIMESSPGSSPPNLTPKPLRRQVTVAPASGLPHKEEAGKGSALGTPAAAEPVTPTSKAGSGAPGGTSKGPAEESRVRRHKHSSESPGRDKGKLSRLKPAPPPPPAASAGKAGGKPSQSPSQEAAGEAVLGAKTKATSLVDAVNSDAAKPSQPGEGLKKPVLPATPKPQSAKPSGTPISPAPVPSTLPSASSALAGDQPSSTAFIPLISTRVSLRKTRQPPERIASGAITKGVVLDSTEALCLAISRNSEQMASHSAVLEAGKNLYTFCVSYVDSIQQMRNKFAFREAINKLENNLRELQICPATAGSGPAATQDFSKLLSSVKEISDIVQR
Sequence of Calcium/calmodulin-dependent protein kinase type II subunit gamma (Homo sapiens) (Q13555 whole entry, the tested form may be a part): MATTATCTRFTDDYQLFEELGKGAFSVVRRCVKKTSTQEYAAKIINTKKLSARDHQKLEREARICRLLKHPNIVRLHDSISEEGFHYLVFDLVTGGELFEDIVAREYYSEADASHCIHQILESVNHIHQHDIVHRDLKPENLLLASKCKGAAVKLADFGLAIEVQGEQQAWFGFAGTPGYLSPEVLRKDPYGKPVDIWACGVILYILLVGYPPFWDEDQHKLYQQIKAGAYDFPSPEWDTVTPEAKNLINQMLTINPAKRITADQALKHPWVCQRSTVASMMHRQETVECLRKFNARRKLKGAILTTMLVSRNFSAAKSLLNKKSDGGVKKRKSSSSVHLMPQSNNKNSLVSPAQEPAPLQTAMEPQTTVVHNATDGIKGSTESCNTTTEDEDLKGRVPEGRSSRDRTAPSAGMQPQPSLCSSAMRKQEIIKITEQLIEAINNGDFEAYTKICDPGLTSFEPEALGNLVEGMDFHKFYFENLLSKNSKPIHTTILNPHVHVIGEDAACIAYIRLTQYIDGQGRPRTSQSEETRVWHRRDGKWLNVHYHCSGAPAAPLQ
Sequence of Protein kinase C delta type (Homo sapiens) (Q05655 whole entry, looked up, the tested form may be a part): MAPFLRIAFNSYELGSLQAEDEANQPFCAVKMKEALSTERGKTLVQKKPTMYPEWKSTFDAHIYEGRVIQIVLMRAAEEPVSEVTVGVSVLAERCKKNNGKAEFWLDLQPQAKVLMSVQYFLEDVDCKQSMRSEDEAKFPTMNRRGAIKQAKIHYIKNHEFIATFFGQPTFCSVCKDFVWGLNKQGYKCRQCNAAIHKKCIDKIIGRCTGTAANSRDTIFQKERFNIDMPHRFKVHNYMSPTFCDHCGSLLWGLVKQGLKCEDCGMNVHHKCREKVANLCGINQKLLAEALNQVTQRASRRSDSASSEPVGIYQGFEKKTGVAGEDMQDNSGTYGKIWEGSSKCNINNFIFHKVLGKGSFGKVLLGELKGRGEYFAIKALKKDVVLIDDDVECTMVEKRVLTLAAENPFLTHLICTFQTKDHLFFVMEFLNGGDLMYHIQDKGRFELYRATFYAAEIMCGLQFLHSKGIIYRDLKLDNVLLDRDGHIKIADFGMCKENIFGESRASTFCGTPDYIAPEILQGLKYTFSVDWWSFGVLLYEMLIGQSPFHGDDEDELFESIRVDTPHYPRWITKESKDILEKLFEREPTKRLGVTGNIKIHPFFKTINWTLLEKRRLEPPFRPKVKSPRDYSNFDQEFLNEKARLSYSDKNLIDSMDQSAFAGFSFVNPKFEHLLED

SMILES: Clc1ccc(C2(c3ccc(-c4ncnc5[nH]cnc45)cc3)CCNCC2)cc1
- inhibition [1]: 5%

SMILES: NCC1CN(c2ncnc3[nH]c4cnccc4c23)CCO1 (centres undefined)
- inhibition [2]: 29.5%
- inhibition [3]: 12%

SMILES: NC1CCN(c2ncnc3[nH]ccc23)CC1
- inhibition [4]: 0.5%
- inhibition [5]: 0%
- inhibition [6]: 12%

SMILES: NCC1CCN(c2ncnc3[nH]ccc23)CC1
- inhibition [7]: 5.5%

SMILES: CNCc1ccc(-c2ncnc3[nH]cnc23)cc1
- inhibition [8]: 60%
- inhibition [9]: 15%
